One data set has as its system RSV A2. Briefly: RSV plaque reduction assay in Hep-G2 cells. The class given is cell-based, respiratory syncytial virus (RSV). The settings on record: human respiratory syncytial virus, HepG2, 48 h, mean of at least two experiments. Here is the method:
Compounds were subjected to RSV plaque reduction assays according to the following protocol. Plaque EC50 and cell toxicity CC50 values are a mean of at least two experiments and figures are rounded to whole units.
Hep-G2 cells (ECACC, 85011430) were passaged in flasks and seeded in 24-well plates in DMEM containing antibiotics and supplemented with 10% FBS. During inoculation and subsequent incubation, cells were cultured in DMEM containing 2% FBS. 100 plaque forming unit/well of RSV (RSV A2 ECACC, 0709161v) was mixed with eight serial dilutions of compound. Subsequently, 100 μL of the virus/compound mixtures was added to confluent Hep-G2 cell monolayers. The cells and virus/compound mixtures were incubated at 37° C. in a humidified 5% CO2 incubator for 2 h prior to removal of the inoculum and addition of 1 mL of overlay (DMEM containing 2% FBS and 0.8% CMC) containing compound dilutions. The cells and were incubated at 37° C. in a humidified 5% CO2 incubator for 2 days.
Cells were washed with PBS before adding 75/25% v/v EtOH/MeOH, for 3 min. Fixative was removed and plates were washed with PBS. A pre-titrated amount of the primary antibody was added in 200 μL PBS/2% milk powder, and plates incubated for 90 min at 37° C. The plates were washed 3 times with PBS/0.05% Tween20 before addition of rabbit anti-goat horse radish peroxidase in 200 μL PBS/2% milk powder, and incubated for 1 h at 37° C. Following three wash steps with PBS/0.05% Tween20, 200 μL ready-to-use TrueBlue was added and plates were incubated at rt for 10-15 min before washing with water. After removal of water, plates were air-dried in the dark. Plates were scanned and analysed using the Immunospot S6 Macro analyser, which is equipped with BioSpot analysis software for counting immunostained plaques (virospots). Plaque counts were used to calculate % infection relative to the mean of the plaque count in the virus control wells for RSV. The EC50 value was calculated as 50% reduction in signal, respectively, by interpolation of inhibition curves fitted with a 4-parameter nonlinear regression with a variable slope in Dotmatics. Plaque EC50 and cell toxicity CC50 values are a mean of at least two experiments and figures are rounded to whole units.

Another data set in a line: Cell cytotoxicity CC50. The class given is cell-based. The settings on record: human, Hep-G2 cells; mean of at least two experiments unless (n = 1).
Where [1] appears, read: Hep-G2 cells, RSV A2, 2 days, read-out: RSV A2 Plaque EC50.

Like-named read-outs stand apart in the source and are kept apart here.

Data on 20 compounds can be found in US20240173332A1, “BENZO[…] TREATING OR PREVENTING RESPIRATORY SYNCYTIAL VIRUS INFECTION” (Pfizer Inc., priority 2021, published 2024).

On to `CC(O)c1ccc(-c2nn3cccnc3c2C(=O)N[C@H]2N=C(c3ccccc3)c3ccccc3NC2=O)c(F)c1` (single isomer, unassigned) [Example 16-1, 2-[2-Fluoro-4-[(1S*)-1-hydroxyethyl]phenyl]-N-[(3S)-2-oxo-5-phenyl-1,3-dihydro-1,4-benzodiazepin-3-yl]pyrazolo[1,5-a]pyrimidine-3-carboxamide], for which the concentration for a half-maximal effect (EC50) with RSV A2 (read-out: RSV A2 Plaque EC50, Hep-G2 cells, RSV A2, 2 days) worked out at 8.2 nM. This compound displayed a CC50 in the data set “Cell cytotoxicity CC50” of over 2500 nM.

Turning to `CC(O)c1ccc(-c2nn3cccnc3c2C(=O)N[C@H]2N=C(c3ccccc3)c3cccc(F)c3NC2=O)c(F)c1` (single isomer, unassigned) [Example 17-1, 2-[2-Fluoro-4-[(1S*)-1-hydroxyethyl]phenyl]-N-[(3S)-9-fluoro-2-oxo-5-phenyl-1,3-dihydro-1,4-benzodiazepin-3-yl]pyrazolo[1,5-a]pyrimidine-3-carboxamide], in the data set on RSV A2 (setting [1]), the 50% effective concentration (EC50) is 5.5 nM. Besides, in the data set “Cell cytotoxicity CC50”, the 50% cytotoxic concentration (CC50) was over 2500 nM.

As for `CC(C)n1cc(-c2nn3cccnc3c2C(=O)N[C@H]2N=C(c3ccccc3)c3ccccc3NC2=O)cn1` [Example 5, N-[(3S)-2-oxo-5-phenyl-1,3-dihydro-1,4-benzodiazepin-3-yl]-2-(1-propan-2-ylpyrazol-4-yl)pyrazolo[1,5-a]pyrimidine-3-carboxamide], in the data set on RSV A2 (setting [1]), the EC50 was 66 nM. For the same compound, in the data set “Cell cytotoxicity CC50”, the cytotoxic concentration (CC50) is over 25000 nM.

As for `CS(=O)(=O)c1ccc(-c2nn3cccnc3c2C(=O)N[C@H]2N=C(c3ccccc3)c3ccccc3NC2=O)c(F)c1` [Example 8, 2-(2-Fluoro-4-methylsulfonylphenyl)-N-[(3S)-2-oxo-5-phenyl-1,3-dihydro-1,4-benzodiazepin-3-yl]pyrazolo[1,5-a]pyrimidine-3-carboxamide], the concentration for a half-maximal effect (EC50) with RSV A2 (setting [1]) was 13 nM. In the data set “Cell cytotoxicity CC50”, this compound showed a half-maximal cytotoxic concentration (CC50) of over 25000 nM.

As for `O=C(N[C@H]1N=C(c2ccccc2)c2ccccc2NC1=O)c1c(-c2cc(CO)ccc2F)nn2cccnc12` [Example 9, 2-[2-Fluoro-5-(hydroxymethyl)phenyl]-N-[(3S)-2-oxo-5-phenyl-1,3-dihydro-1,4-benzodiazepin-3-yl]pyrazolo[1,5-a]pyrimidine-3-carboxamide], in the data set with RSV A2 (setting [1]), the EC50 stood at 60 nM. The half-maximal cytotoxic concentration (CC50) in “Cell cytotoxicity CC50” is over 25000 nM.

Turning to `O=C(N[C@H]1N=C(c2ccccc2)c2cccc(F)c2NC1=O)c1c(-c2cc(CO)ccc2F)nn2cccnc12` [Example 10, 2-[2-Fluoro-5-(hydroxymethyl)phenyl]-N-[(3S)-9-fluoro-2-oxo-5-phenyl-1,3-dihydro-1,4-benzodiazepin-3-yl]pyrazolo[1,5-a]pyrimidine-3-carboxamide], the half-maximal effective concentration (EC50) in the data set on RSV A2 (setting [1]) is 25 nM. Further, the cytotoxic concentration (CC50) in “Cell cytotoxicity CC50” is over 20200 nM.

Regarding `O=C(N[C@H]1N=C(c2ccccc2)c2ccccc2NC1=O)c1c(-c2ccc(O)cc2F)nn2cccnc12` [Example 11, 2-(2-Fluoro-4-hydroxyphenyl)-N-[(3S)-2-oxo-5-phenyl-1,3-dihydro-1,4-benzodiazepin-3-yl]pyrazolo[1,5-a]pyrimidine-3-carboxamide], in the data set on RSV A2 (setting [1]), the half-maximal effective concentration (EC50) stood at 47 nM. This compound registered a 50% cytotoxic concentration (CC50) in “Cell cytotoxicity CC50” of over 25000 nM.

Consider `O=C(N[C@H]1N=C(c2ccccc2)c2cccc(F)c2NC1=O)c1c(-c2ccc(O)cc2F)nn2cccnc12` [Example 12, 2-(2-Fluoro-4-hydroxyphenyl)-N-[(3S)-9-fluoro-2-oxo-5-phenyl-1,3-dihydro-1,4-benzodiazepin-3-yl]pyrazolo[1,5-a]pyrimidine-3-carboxamide], for which the concentration giving a half-maximal response (EC50) with RSV A2 (setting [1]) came to 16 nM. The compound further had a CC50 in the data set “Cell cytotoxicity CC50” of over 25000 nM.

With `CC(C)(O)Cc1ccc(-c2nn3cccnc3c2C(=O)N[C@H]2N=C(c3ccccc3)c3cccc(F)c3NC2=O)c(F)c1` [Example 14, 2-[2-Fluoro-4-(2-hydroxy-2-methylpropyl)phenyl]-N-[(3S)-9-fluoro-2-oxo-5-phenyl-1,3-dihydro-1,4-benzodiazepin-3-yl]pyrazolo[1,5-a]pyrimidine-3-carboxamide], the EC50 with RSV A2 (setting [1]) turned out to be 20 nM. The compound further came in with a CC50 in the data set “Cell cytotoxicity CC50” of over 25000 nM.

`CC(C)(O)Cc1ccc(-c2nn3cccnc3c2C(=O)N[C@H]2N=C(c3ccccc3)c3ccccc3NC2=O)c(F)c1` [Example 15, 2-[2-Fluoro-4-(2-hydroxy-2-methylpropyl)phenyl]-N-[(3S)-2-oxo-5-phenyl-1,3-dihydro-1,4-benzodiazepin-3-yl]pyrazolo[1,5-a]pyrimidine-3-carboxamide]: in the data set on RSV A2 (setting [1]), the EC50 is 32 nM. This compound came in with a CC50 in the data set “Cell cytotoxicity CC50” of over 25000 nM.

Regarding `CC(O)c1ccc(-c2nn3cccnc3c2C(=O)N[C@H]2N=C(c3ccccc3)c3ccccc3NC2=O)c(F)c1` (stereo partly drawn) [Example 16, 2-[2-Fluoro-4-(1-hydroxyethyl)phenyl]-N-[(3S)-2-oxo-5-phenyl-1,3-dihydro-1,4-benzodiazepin-3-yl]pyrazolo[1,5-a]pyrimidine-3-carboxamide], the EC50 with RSV A2 (setting [1]) worked out at 7.6 nM. Further, in the data set “Cell cytotoxicity CC50”, the half-maximal cytotoxic concentration (CC50) was over 25000 nM.

With `CC(O)c1ccc(-c2nn3cccnc3c2C(=O)N[C@H]2N=C(c3ccccc3)c3cccc(F)c3NC2=O)c(F)c1` (stereo partly drawn) [Example 17, 2-[2-Fluoro-4-(1-hydroxyethyl)phenyl]-N-[(3S)-9-fluoro-2-oxo-5-phenyl-1,3-dihydro-1,4-benzodiazepin-3-yl]pyrazolo[1,5-a]pyrimidine-3-carboxamide], the EC50 in the data set on RSV A2 (setting [1]) was determined as 6.9 nM. In “Cell cytotoxicity CC50”, this compound had a CC50 of over 25000 nM.

Take `CC(C)(O)c1ccc(-c2nn3cccnc3c2C(=O)N[C@H]2N=C(c3ccccc3)c3ccccc3NC2=O)c(F)c1` [Example 20, 2-[2-Fluoro-4-(2-hydroxypropan-2-yl)phenyl]-N-[(3S)-2-oxo-5-phenyl-1,3-dihydro-1,4-benzodiazepin-3-yl]pyrazolo[1,5-a]pyrimidine-3-carboxamide]: the 50% effective concentration (EC50) in the data set with RSV A2 (setting [1]) worked out at 8.7 nM. Also, the 50% cytotoxic concentration (CC50) in the data set “Cell cytotoxicity CC50” was over 25000 nM.

`O=C(N[C@H]1N=C(c2ccccc2)c2ccccc2NC1=O)c1c(-c2ccc(CCO)cc2F)nn2cccnc12` [Example 21, 2-[2-Fluoro-4-(2-hydroxyethyl)phenyl]-N-[(3S)-2-oxo-5-phenyl-1,3-dihydro-1,4-benzodiazepin-3-yl]pyrazolo[1,5-a]pyrimidine-3-carboxamide]: the EC50 in the data set on RSV A2 (setting [1]) was found to be 42 nM. In addition, in the data set “Cell cytotoxicity CC50”, the cytotoxic concentration (CC50) is over 25000 nM.

Turning to `O=C(N[C@H]1N=C(c2ccccc2)c2cccc(F)c2NC1=O)c1c(-c2ccc(CCO)cc2F)nn2cccnc12` [Example 22, 2-[2-Fluoro-4-(2-hydroxyethyl)phenyl]-N-[(3S)-9-fluoro-2-oxo-5-phenyl-1,3-dihydro-1,4-benzodiazepin-3-yl]pyrazolo[1,5-a]pyrimidine-3-carboxamide], in the data set with RSV A2 (setting [1]), the concentration giving a half-maximal response (EC50) was 25 nM. Further, the CC50 in “Cell cytotoxicity CC50” is over 25000 nM.

With `CCS(=O)(=O)c1ccc(-c2nn3cccnc3c2C(=O)N[C@H]2N=C(c3ccccc3)c3cccc(F)c3NC2=O)c(F)c1` [Example 23, 2-(4-Ethylsulfonyl-2-fluorophenyl)-N-[(3S)-9-fluoro-2-oxo-5-phenyl-1,3-dihydro-1,4-benzodiazepin-3-yl]pyrazolo[1,5-a]pyrimidine-3-carboxamide], in the data set on RSV A2 (setting [1]), the EC50 worked out at 3 nM. The 50% cytotoxic concentration (CC50) in “Cell cytotoxicity CC50” was over 25000 nM.

As for `NS(=O)(=O)c1ccc(-c2nn3cccnc3c2C(=O)N[C@H]2N=C(c3ccccc3)c3cccc(F)c3NC2=O)c(F)c1` [Example 24, N-[(3S)-9-Fluoro-2-oxo-5-phenyl-1,3-dihydro-1,4-benzodiazepin-3-yl]-2-(2-fluoro-4-sulfamoylphenyl)pyrazolo[1,5-a]pyrimidine-3-carboxamide], the EC50 in the data set on RSV A2 (setting [1]) is 49 nM. The compound also registered a half-maximal cytotoxic concentration (CC50) in “Cell cytotoxicity CC50” of over 25000 nM.

In the case of `CN(C)S(=O)(=O)c1ccc(-c2nn3cccnc3c2C(=O)N[C@H]2N=C(c3ccccc3)c3cccc(F)c3NC2=O)c(F)c1` [Example 25, 2-[4-(Dimethylsulfamoyl)-2-fluorophenyl]-N-[(3S)-9-fluoro-2-oxo-5-phenyl-1,3-dihydro-1,4-benzodiazepin-3-yl]pyrazolo[1,5-a]pyrimidine-3-carboxamide], in the data set with RSV A2 (setting [1]), the EC50 was found to be 1.2 nM. Moreover, the CC50 in the data set “Cell cytotoxicity CC50” was over 25000 nM.

For `CS(=O)(=O)c1ccc(F)c(-c2nn3cccnc3c2C(=O)N[C@H]2N=C(c3ccccc3)c3cccc(F)c3NC2=O)c1` [Example 26, 2-(2-Fluoro-5-methylsulfonylphenyl)-N-[(3S)-9-fluoro-2-oxo-5-phenyl-1,3-dihydro-1,4-benzodiazepin-3-yl]pyrazolo[1,5-a]pyrimidine-3-carboxamide], the concentration for a half-maximal effect (EC50) in the data set on RSV A2 (setting [1]) came to 61 nM. The compound also returned a CC50 in “Cell cytotoxicity CC50” of over 25000 nM.

On to `NC(=O)c1ccc(-c2nn3cccnc3c2C(=O)N[C@H]2N=C(c3ccccc3)c3cccc(F)c3NC2=O)c(F)c1` [Example 27, 2-(4-Carbamoyl-2-fluorophenyl)-N-[(3S)-9-fluoro-2-oxo-5-phenyl-1,3-dihydro-1,4-benzodiazepin-3-yl]pyrazolo[1,5-a]pyrimidine-3-carboxamide], for which the EC50 with RSV A2 (setting [1]) stood at 49 nM. For the same compound, the cytotoxic concentration (CC50) in the data set “Cell cytotoxicity CC50” is over 25000 nM.

For orientation: EC50 means the concentration giving half of the maximal effect. Broadly, the CC50 is the concentration giving 50% cytotoxicity. A lower CC50 goes with greater toxicity to the cells.
